Reference: US20210260057A1, “COMPOSITIONS AND METHODS TARGETING GLUTAMINE AND ITS METABOLISM FOR DIAGNOSING AND TREATING CANCER AND THERAPY-ASSOCIATED SIDE EFFECTS” (CEDARS-SINAI MEDICAL CENTER, priority 2018, published 2021)
Where “and” joins values, the source holds several entries; their conditions need not be identical. Equal values may be shown once.

Experiments:
CWR22Rv1 with CAF = assay: 3D co-cultures of CAF-CWR22Rv1, neuroendocrine gene panel rtPCR; assay type: cell-based, human; details: in the context of enzalutamide, 3 days, glutamine free media, well below control levels, F test P<0.0001
Description: (§1) 3D organotypic co-culture. A modified version of the 3D organotypic co-culture system was performed in a collagen matrix similar to that previously reported (Stark H J, Baur M, Breitkreutz D, Mirancea N, and Fusenig N E. Organotypic keratinocyte cocultures in defined medium with regular epidermal morphogenesis and differentiation. J Invest Dermatol. 1999; 112(5):681-91). Matrix were prepared by mixing five volumes of rat tail collagen with two volumes of matrigel in one volume of 10×DMEM medium (GE Healthcare Life Sciences), and one volume of FBS (Atlanta Biologicals). CWR22Rv1 and primary mouse prostatic fibroblasts (WT or RAS^V12) were combined in a 1:3 ratio in the matrix. Nylon squares were coated with collagen and placed on metal grids in a 6-well plate. Matrix plugs containing cells, formed in 96 well plates (150 μl), were transferred onto the nylon squares and media was added to the level of the nylon mesh. Following treatments, the cells were dissociated from the matrix with collagenase and dispase for FACS analysis.
(§2) RNA expression level. All real-time PCR assays were carried out using three technical replicates and three independent cDNA syntheses on a 7500 Real-Time PCR System (Applied Biosystems). Data were normalized using an internal control gene, either GAPDH or β-actin. Relative quantification of expression levels (RQ) was calculated using the ^2-ΔΔCt method.

PD1 and CD47 on CWR22Rv1 = assay: FACS of immune checkpoint proteins in prostate cancer/fibroblast co-culture; assay type: cell-based, human; details: CWR22Rv1 co-cultured with wild type or CD105-knockout fibroblasts
[1] = system: human prostate cancer cells (CWR22Rv1); assay: Gene expression in prostate cancer cells (FIG. 15A-D); assay type: cell-based; details: FIG. 15D
CWR22Rv1 cells [2] = assay: 3D organotypic co-culture, epithelial proliferation by FACS (EpCAM+/Ki67+); assay type: cell-based, human; details: 3D co-cultures of fibroblasts and CWR22Rv1; P<0.05 (GPNA), P<0.001 (BPTES)
Description: as §1

[3] = system: prostate cancer epithelial cells; assay: ALDH (stem marker) in prostate cancer epithelial cells; assay type: cell-based
[4] = system: prostate cancer (serum PSA); assay: PSA response of PCa patients on androgen targeted therapy; assay type: in vivo, human; set-up: PSA on treatment: unit not given beside the values; details: for PSA on treatment: individual PCa patient on the listed Rx
Source text: Plasma glutamine level may be prognostic for ADT sensitivity. Considering the striking finding that glutamine can induce ADT resistance, we tested if glutamine concentrations can be associated with ADT sensitivity in prostate cancer patients. We measured blood plasma glutamine concentrations in 28 PCa patients that received ADT (Table 1). Of note, the specific androgen signaling-axis interventions in the patient pool included, androgen receptor antagonists: bicalutamide, enzalutamide, and apalutamide, as well as androgen synthesis inhibitors: leuprolide, goserelin, triptorelin, and abiraterone.

RASAL3 promoter = assay: Methylation specific PCR of RASAL3 exon 2 in CAF; assay type: cell-based, human; details: CAF after treatment
Description: (FIG. 13A) Quantitative rtPCR analysis of RASAL3 in NAF and CAF was performed following 5 day treatment with bicalutamide (Bic, 10^−5 M), enzalutamide (Enza, 10^−5 M), R1881 (10^−9 M), or 5-Azacytidine (5-Aza, […]). RASAL3 expression was normalized GAPDH expression. Data represent the mean±SEM. *P<0.05, ***P<0.001, and ****P<0.0001, by two-way ANOVA followed by multiple comparison. Results are the average of at least three independent experiments. (FIG. 13B) MS-PCR of the RASAL3 exon 2 methylation status in CAF after treatment with enzalutamide, R1881, 5-Azacytidine and bicalutamide was performed. The PCR products in the lanes marked “U” indicate unmethylated templates for RASAL3 gene, whereas the products in the lanes marked “M” indicate methylated templates. Data are representative of three independent experiments.

primary CAF = assay: Macropinocytosis assay (TMR-dextran uptake); assay type: cell-based, human; details: EIPA 25 μM, 5-Aza DC 5 μM (FIG. 9A)
Description: Macropinocytosis assay. These were performed as described previously (Commisso C, Davidson S M, Soydaner-Azeloglu R G, Parker S J, Kamphorst J J, Hackett S, Grabocka E, Nofal M, Drebin J A, Thompson C B, et al. Macropinocytosis of protein is an amino acid supply route in Ras-transformed cells. Nature. 2013; 497(7451):633-7), briefly fibroblasts which were grown on cover slips, serum-starved for 18 hours. TMR-dextran (1 mg/ml; 70 kDa, […]), which is an established marker of macropinocytosis, was added to serum-free medium for 30 min at 37° C. for macropinosomes labeling (Commisso C, Davidson S M, Soydaner-Azeloglu R G, Parker S J, Kamphorst J J, Hackett S, Grabocka E, Nofal M, Drebin J A, Thompson C B, et al. Macropinocytosis of protein is an amino acid supply route in Ras-transformed cells. Nature. 2013; 497(7451):633-7). […] Images were captured using laser confocal scanning microscopy (Leica) and analyzed via LASX software. […] The fluorescence signals in the cells were imaged using FSX100 (Olympus, USA). To determine whether the internalized albumin is intracellularly degraded, we have utilized a self-quenching red fluorescent dye, where lysosomal proteases enable red fluorescence visualization. Cells were incubated in RPMI media containing DQ-BSA (10 μg/ml) for 30 min and washed twice with PBS and monitored by confocal microscopy.

RASAL3 mRNA in CAF = assay: RASAL3 mRNA expression (rtPCR) in CAF; assay type: cell-based, human; details: 5-day treatment; Bic 10^−5 M, Enza 10^−5 M, R1881 10^−9 M, 5-Aza 5 mmol/L
Description: as §2

CWR22Rv1 = assay: MTT viability assay, CWR22Rv1; assay type: cell-based, human; details: CWR22Rv1, 72 hrs incubation with EIPA
Description: (§3) (FIG. 10A) The viability of CWR22Rv1 and mouse prostatic fibroblasts (Cas9 control and Rasa13-KO) was measured by MTT assay following 72 hrs incubation with macropinocytotic inhibitor, EIPA. The bar graphs represent the absorbance of the MTT formazan determined at 570 nm from a single experiment representative of a total 3 independent experiments, each performed in quadruplicate. Statistical significance was determined by one-way ANOVA. (FIG. 10B) Quantitation of EpCAM-positive epithelial cells were achieved by FACS of 3D co-cultures of human C4-2B epithelia and wild type (WT) or Ras^V12 mouse fibroblasts. Statistical significance was determined by unpaired t test. (FIG. 10C) Stromal fibroblasts (Cas9 or Rasa13-KO) cultured with CWR22Rv1 epithelia using a standard transwell apparatus. […] Epithelial and stromal cells grown in glutamine free either DMEMF12 or RPMI media. are expressed as mean±SEM of 3 independent experiments. Statistical significance was determined by two-tailed student's t test. **P<0.01, ****P<0.0001.

[5] = system: Rasa13-KO mouse prostatic fibroblasts; assay: MTT viability assay, Rasa13-KO fibroblasts; assay type: cell-based; details: 72 hrs incubation with EIPA, P<0.001
Description: as §3

[6] = system: CWR22Rv1 and Ras^V12 mouse fibroblast tissue recombinants; assay: Orthotopic tissue recombinant xenograft, EIPA treatment; assay type: in vivo; details: SCID mice, anterior prostate grafts; EIPA for 1 week from two weeks after grafting, vs vehicle control; P<0.01 (FIG. 2H)
Source text: (§4) Tissue recombination mouse models.
To directly determine if Ras signaling confers a tumor supportive role associated with CAF, we used CRISPR/Cas9 to knock out Rasa13 in mouse prostatic fibroblasts. Compared to the expression of Cas9 fibroblasts (control), Ras activity and ERK phosphorylation was elevated in Rasa13-knockout (Rasa13-KO) fibroblasts (FIG. 2D). Rasa13-KO fibroblasts took up TMR dextran, whereas it was undetectable in the control fibroblasts (FIG. 2E). The exogenous expression of active Ras^V12 (Gly^12→Val^12) in wild-type mouse prostatic fibroblasts replicated the downstream ERK activation and macropinocytosis observed in CAF and Rasa13-KO cells (FIG. 2 F,G). Thus, epigenetic RASAL3 silencing of prostatic fibroblasts promoted familiar signaling and macropinocytosis associated with Ras transformation (Commisso et al., 2013). […] To test the role of stromal Ras-mediated macropinocytosis on tumor development, orthotopic PCa xenograft models were used. Tissue recombinants of Ras^V12-expressing fibroblasts and CWR22Rv1 epithelia were grafted into the anterior prostates of SCID mice. Two weeks later, mice were treated with vehicle control or EIPA for 1 week to suppress macropinocytosis (FIG. 2H). […] Thus, glutamine uptake by the tumor was necessary for its expansion.

[7] = system: mouse prostatic fibroblasts (Cas9 control); assay: MTT viability assay, control (Cas9 / wild type) fibroblasts; assay type: cell-based; details: 72 hrs incubation with EIPA
Description: as §3

C4-2B cells = assay: Seahorse XF-24 metabolic flux analysis, C4-2B; assay type: cell-based, human; details: C4-2B in Ras^V12 fibroblast-CM; GPNA 10 μM
Description: (§5) Seahorse XF-24 metabolic flux analysis. Oxygen consumption rate (OCR, pmol min-1) was measured with the Searhorse Bioscience XF24 extracellular flux analyzer. Cells were incubated in a CO2-free incubator for 1 h at 37° C. to allow for temperature and pH equilibration prior to loading into the XF24 apparatus. Initial assays were performed to optimize cell number, FCCP concentration and oligomycin concentration (data not shown). We used L-Glutamic acid γ-(p-nitroanilide) hydrochloride (GPNA, 10 μM), a specific glutamine […] inhibitor.

CWR22Rv1 cells [8] = assay: Seahorse XF-24 metabolic flux analysis, CWR22Rv1; assay type: cell-based, human; details: CWR22Rv1 in Ras^V12 fibroblast-CM; GPNA 10 μM
Description: as §5

[9] = system: CWR22Rv1 and CAF tissue recombinants; assay: Castrate resistant sub-renal capsule xenograft (castration + enzalutamide)
Description: Tissue recombination mouse models. Cell recombinants were prepared by mixing 2×10^5 epithelial (CWR22Rv1) cells with 6×10^5 CAFs or stromal cells expressing KRAS^V12 per site in collagen as described before (Banerj ee J, Mishra R, Li X, Jackson R S, 2nd, Sharma A, and Bhowmick N A. A reciprocal role of prostate cancer on stromal DNA damage. Oncogene. 2014; 33(41):4924-31). The mice were either left intact or castrated 1 week after grafting. […] Castrated mice were treated with enzalutamide (5 mg/kg) either alone or in combination with L-glutamic acid Υ-(p-nitroanilide) hydrochloride (GPNA; 10 mg/kg; Sigma-Aldrich) for three weeks. The tumor volumes were measured using digital calipers and calculated using the following formula: length (mm)×width (mm)×width (mm)×0.52. When the mice were sacrificed and tumors were excised and photographed. Formalin-fixed, paraffin-embedded (FFPE) xenograft tumor tissue was sectioned and stained with hematoxylin and eosin (H&E) and staining for chromogranin A, TUNEL, phosphorylated-hi stone H3 and phosphorylated-mTOR.

[10] = system: CWR22Rv1 and CAF tissue recombinants; assay: Sub-renal capsule tissue recombinant xenograft, intact mice; assay type: in vivo, mouse; details: GPNA vs control
Source text: as §4

[11] = castrated, enzalutamide treated mice, addition of GPNA

## O=C(Cc1ccccc1)Nc1nnc(CCSCCc2nnc(NC(=O)Cc3ccccc3)s2)s1 [BPTES, bis-2(5-phenylacetamido-1,3,4-thiadiazol-2-yl)ethyl sulfide]
CWR22Rv1 with CAF
  mRNA expression of the panel of neuroendocrine biomarker genes: significantly reduced
PD1 and CD47 on CWR22Rv1
  CD47 expression (FACS): downregulated
  PD1 expression (FACS): downregulated
[1]
  enzalutamide-induced TET2 expression: downregulates
CWR22Rv1 cells [2]
  epithelial proliferation (Ki-67 staining of EpCAM+ cells, FACS): significantly decreased epithelial proliferation
[3]; epithelial culture without stromal fibroblasts (FIG. 17B)
  enzalutamide-upregulated ALDH: can be limited

## C[C@]12CC[C@H](O)CC1=CC[C@@H]1[C@@H]2CC[C@]2(C)C(c3cccnc3)=CC[C@@H]12 [A, Abiraterone]
[4]
  PSA on treatment: 26.2 and 6.4

## N[C@@H](CCC(=O)O)C(=O)O [glutamate]
[3]; prostate cancer epithelial cells (FIG. 17A, 17B)
  ALDH (stem marker): upregulates ALDH further

## Nc1ncn([C@H]2C[C@H](O)[C@@H](CO)O2)c(=O)n1 [5-aza-2′-deoxycytidine]
RASAL3 promoter
  methylation of the RASAL3 promoter (methylation specific PCR): hypomethylation
Primary CAF
  TMR-dextran uptake by CAF (macropinocytosis): inhibited
RASAL3 mRNA in CAF
  RASAL3 mRNA expression in CAF: restored

## CCN(c1nc(N)c(C(=O)N=C(N)N)nc1Cl)C(C)C [EIPA, 5-(N-ethyl-N-isopropyl) amiloride]
CWR22Rv1
  viability (MTT): no significant effect
Primary CAF
  TMR-dextran uptake by CAF (macropinocytosis): inhibited
[5]
  viability (MTT): reduced the viability
[6]
  tumor size: dramatically reduced tumor size
[7]
  viability (MTT): no significant effect

## CCNC(=O)[C@@H]1CCCN1C(=O)[C@H](CCCNC(=N)N)NC(=O)[C@H](CC(C)C)NC(=O)[C@@H](CC(C)C)NC(=O)[C@H](Cc1ccc(O)cc1)NC(=O)[C@H](CO)NC(=O)[C@H](Cc1c[nH]c2ccccc12)NC(=O)[C@H](Cc1c[nH]cn1)NC(=O)[C@@H]1CCC(=O)N1 [L, Leuprolide]
[4]
  PSA on treatment: <0.1 and 7.8 and 0.1 and 1.1 and 1.2 and 0.2
[4]; individual PCa patient, responsiveness to ADT based on serum PSA
  Outcome: Responsive (4×) and Non- (2×)

## N[C@@H](CCC(=O)Nc1ccc([N+](=O)[O-])cc1)C(=O)O [GPNA, L-gamma-glutamyl-p-nitroanilide]
CWR22Rv1 with CAF
  mRNA expression of the panel of neuroendocrine biomarker genes: significantly reduced
C4-2B cells
  basal respiration, ATP, and maximal respiration (OCR): restored basal respiration, ATP, and maximal respiration to that observed with wild type fibroblast-CM
CWR22Rv1 cells [2]
  epithelial proliferation (Ki-67 staining of EpCAM+ cells, FACS): significantly decreased epithelial proliferation
CWR22Rv1 cells [8]
  basal respiration, ATP, and maximal respiration (OCR): restored basal respiration, ATP, and maximal respiration to that observed with wild type fibroblast-CM
[9]; GPNA + ADT vs ADT alone, P<0.001
  cell death (TUNEL): elevated
[9]; GPNA + ADT vs ADT alone, P<0.05
  localization of phosphorylated-mTOR (Ser-2481): reduced
[9]; GPNA + ADT vs androgen signaling blockage alone
  mitotic index (phosphorylated histone H3): did not significantly change
[9]; castrated mice, enzalutamide 5 mg/kg + GPNA 10 mg/kg for three weeks vs ADT alone, P<0.0001
  tumor size: significantly reduced tumor size
[9]; [11]
  chromogranin A expression induced by castration and enzalutamide: reduced chromogranin A expression
  histology (H&E): associated with karyolytic cells
[10]; P<0.0001
  mitotic index (phosphorylated-histone H3): reduced
[10]; P<0.001
  tumor volume: reduced tumor volume

## CC(O)(CS(=O)(=O)c1ccc(F)cc1)C(=O)Nc1ccc(C#N)c(C(F)(F)F)c1 (stereo not shown) [bicalutamide]
[4]
  PSA on treatment: 11.3
